Measured values published in patent US20050282743A1, “Molecular interactions in cells” (Arbor Vita Corporation, priority 2001, published 2005).
Ends that are not written are not given here. Peptide text beside a SMILES is read from it. * marks the point of attachment. Biotin = O=C1N[C@H]2[C@H](CS[C@H]2CCCCC(=O)*)N1

Key:
Test in all cases: G' assay (10 uM PL peptide), results of TABLE 7 and TABLE 12
Assay type in all cases: binding
[1] = molecular target: T1, PDZ protein (GST-PDZ fusion) (Homo sapiens, UniProt Q6P0Q8)
T1 construct: made in house; host or cells: E. coli (DH5alpha, BL21 or JM109)
Procedure, shortened: (§1)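 Biotin-PL peptide (N-term label), 10 uM vs GST-PDZ; protein 5 ug/ml by default. A450 nm binned: 1 = 0-1, 2 = 1-2, 3 = 2-3, 4 = 3-4, 5 = >4 on >2 repeats, 0 = no binding.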

[2] = molecular target: T2, PDZ protein (GST-PDZ fusion) (Homo sapiens, UniProt Q96JH8); conditions: PDZ FLJ 10324, PDZ Domain 1
T2 construct: made in house; host or cells: E. coli (DH5alpha, BL21 or JM109)
T2 sequence (Q96JH8 1-1075): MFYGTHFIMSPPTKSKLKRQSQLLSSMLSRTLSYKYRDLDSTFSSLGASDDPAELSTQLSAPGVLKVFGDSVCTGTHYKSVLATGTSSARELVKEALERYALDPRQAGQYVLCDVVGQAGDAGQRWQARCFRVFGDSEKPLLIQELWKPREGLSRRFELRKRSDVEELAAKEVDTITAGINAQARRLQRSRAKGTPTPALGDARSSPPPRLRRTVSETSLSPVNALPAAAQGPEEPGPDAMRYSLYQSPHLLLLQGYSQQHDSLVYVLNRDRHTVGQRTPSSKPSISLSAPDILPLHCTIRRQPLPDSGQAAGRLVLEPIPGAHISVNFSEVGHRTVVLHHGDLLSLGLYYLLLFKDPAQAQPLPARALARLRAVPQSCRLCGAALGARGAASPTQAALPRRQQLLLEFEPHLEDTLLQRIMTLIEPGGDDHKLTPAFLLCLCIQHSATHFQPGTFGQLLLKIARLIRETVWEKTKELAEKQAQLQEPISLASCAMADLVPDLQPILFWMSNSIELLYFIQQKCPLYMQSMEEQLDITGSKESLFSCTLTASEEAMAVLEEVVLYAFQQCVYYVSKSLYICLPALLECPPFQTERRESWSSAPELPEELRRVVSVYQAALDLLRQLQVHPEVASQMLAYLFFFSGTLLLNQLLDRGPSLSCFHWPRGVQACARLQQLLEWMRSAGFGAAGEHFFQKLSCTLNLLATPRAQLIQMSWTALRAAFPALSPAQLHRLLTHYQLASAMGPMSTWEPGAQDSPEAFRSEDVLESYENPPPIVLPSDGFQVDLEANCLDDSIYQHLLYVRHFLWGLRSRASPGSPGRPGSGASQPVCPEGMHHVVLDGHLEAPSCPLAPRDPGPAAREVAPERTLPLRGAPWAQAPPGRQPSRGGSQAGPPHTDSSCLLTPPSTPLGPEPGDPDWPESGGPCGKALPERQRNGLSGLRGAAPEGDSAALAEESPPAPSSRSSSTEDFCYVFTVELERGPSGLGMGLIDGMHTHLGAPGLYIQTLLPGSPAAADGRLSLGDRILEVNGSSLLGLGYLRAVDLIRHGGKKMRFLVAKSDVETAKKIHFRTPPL
Procedure, shortened: as §1

[3] = molecular target: T3, PDZ protein (GST-PDZ fusion) (Homo sapiens, UniProt Q02410)
T3 construct: made in house; host or cells: E. coli (DH5alpha, BL21 or JM109)
T3 sequence (Q02410 1-837): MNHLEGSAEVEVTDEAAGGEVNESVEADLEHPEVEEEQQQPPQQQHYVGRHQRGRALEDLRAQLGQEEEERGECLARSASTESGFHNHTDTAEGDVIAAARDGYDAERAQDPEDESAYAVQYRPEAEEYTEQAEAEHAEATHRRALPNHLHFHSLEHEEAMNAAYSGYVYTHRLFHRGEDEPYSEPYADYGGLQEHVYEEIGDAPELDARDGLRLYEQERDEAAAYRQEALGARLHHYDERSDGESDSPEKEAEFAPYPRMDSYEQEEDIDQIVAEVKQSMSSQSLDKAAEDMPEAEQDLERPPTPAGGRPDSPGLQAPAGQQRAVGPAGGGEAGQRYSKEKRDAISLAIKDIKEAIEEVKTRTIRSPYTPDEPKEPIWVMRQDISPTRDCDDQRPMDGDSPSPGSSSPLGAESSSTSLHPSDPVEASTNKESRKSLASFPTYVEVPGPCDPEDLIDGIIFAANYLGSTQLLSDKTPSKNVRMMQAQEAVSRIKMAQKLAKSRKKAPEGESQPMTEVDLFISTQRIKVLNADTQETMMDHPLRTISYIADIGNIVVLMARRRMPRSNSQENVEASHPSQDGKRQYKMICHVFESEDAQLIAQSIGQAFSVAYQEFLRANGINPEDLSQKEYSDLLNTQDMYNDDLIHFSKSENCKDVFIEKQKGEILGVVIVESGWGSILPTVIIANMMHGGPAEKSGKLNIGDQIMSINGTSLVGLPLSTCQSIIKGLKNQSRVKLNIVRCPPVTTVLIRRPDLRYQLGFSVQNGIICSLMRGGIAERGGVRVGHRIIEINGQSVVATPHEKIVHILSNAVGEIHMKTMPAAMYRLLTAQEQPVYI
Procedure, shortened: as §1

[4] = PDZ KIAA807, PDZ Domain not given

T1 sequence (Q6P0Q8 whole entry, the tested form may be a part): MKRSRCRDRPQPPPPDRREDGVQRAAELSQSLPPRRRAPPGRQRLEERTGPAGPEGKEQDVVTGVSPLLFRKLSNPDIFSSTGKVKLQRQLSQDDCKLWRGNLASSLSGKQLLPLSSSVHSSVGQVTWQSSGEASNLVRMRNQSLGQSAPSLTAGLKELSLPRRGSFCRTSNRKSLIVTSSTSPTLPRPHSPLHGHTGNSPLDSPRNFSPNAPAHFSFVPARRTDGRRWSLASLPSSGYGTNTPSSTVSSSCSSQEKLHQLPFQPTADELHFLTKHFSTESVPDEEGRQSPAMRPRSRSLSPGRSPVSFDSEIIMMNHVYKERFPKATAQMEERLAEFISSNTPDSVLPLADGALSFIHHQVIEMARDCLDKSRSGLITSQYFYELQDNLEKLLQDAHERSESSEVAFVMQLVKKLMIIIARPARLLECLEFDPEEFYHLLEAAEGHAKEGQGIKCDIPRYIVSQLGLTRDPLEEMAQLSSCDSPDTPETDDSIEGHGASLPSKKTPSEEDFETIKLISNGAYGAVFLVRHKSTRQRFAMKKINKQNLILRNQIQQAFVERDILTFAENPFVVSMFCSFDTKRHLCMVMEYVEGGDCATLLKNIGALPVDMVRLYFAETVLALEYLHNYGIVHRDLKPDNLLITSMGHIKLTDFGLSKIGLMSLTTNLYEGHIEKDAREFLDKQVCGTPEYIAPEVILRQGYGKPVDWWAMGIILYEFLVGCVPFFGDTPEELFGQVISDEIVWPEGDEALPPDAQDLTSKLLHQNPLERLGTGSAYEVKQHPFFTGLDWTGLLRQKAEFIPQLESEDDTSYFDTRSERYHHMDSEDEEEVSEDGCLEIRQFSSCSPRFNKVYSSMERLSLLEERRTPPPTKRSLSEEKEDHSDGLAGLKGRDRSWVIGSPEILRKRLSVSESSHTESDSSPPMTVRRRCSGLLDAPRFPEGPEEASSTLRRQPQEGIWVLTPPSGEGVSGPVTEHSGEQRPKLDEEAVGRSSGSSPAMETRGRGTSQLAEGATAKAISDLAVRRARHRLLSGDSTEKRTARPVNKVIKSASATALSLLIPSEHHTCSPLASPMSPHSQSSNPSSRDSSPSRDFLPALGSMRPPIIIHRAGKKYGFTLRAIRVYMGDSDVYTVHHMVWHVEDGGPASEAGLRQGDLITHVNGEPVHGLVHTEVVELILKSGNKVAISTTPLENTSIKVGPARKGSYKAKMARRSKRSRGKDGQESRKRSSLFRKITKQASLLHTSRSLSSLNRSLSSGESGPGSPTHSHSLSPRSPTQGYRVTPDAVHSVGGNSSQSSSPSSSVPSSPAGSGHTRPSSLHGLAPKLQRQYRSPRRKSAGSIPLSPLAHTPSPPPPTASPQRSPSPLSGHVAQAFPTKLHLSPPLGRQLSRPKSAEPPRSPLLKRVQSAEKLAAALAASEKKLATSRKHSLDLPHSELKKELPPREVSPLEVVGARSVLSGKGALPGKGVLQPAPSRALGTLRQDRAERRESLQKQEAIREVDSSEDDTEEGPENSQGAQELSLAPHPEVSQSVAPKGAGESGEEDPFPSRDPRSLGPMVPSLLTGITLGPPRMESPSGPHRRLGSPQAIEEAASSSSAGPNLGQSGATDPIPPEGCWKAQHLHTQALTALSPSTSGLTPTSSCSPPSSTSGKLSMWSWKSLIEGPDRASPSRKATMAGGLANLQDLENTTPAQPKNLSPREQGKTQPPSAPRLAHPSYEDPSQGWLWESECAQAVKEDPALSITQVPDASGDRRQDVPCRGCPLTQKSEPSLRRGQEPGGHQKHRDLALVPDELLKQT

## CC[C@H](C)[C@H](NC(=O)[C@H](Cc1ccc(O)cc1)NC(=O)[C@H](CC(C)C)NC(=O)[C@H](CCC(N)=O)NC(=O)[C@H](Cc1c[nH]cn1)NC(=O)[C@H](CO)NC(=O)[C@H](C)NC(=O)[C@H](CC(C)C)NC(=O)[C@@H](NC(=O)[C@H](CC(=O)O)NC(=O)[C@H](CCSC)NC(=O)[C@H](Cc1ccccc1)NC(=O)[C@@H]1CCCN1C(=O)[C@H](CCCNC(=N)N)NC(=O)[C@@H](NC(=O)[C@H](CC(C)C)NC(=O)[C@H](CC(N)=O)NC(=O)[C@H](CC(=O)O)NC(=O)[C@@H](NC(=O)[C@H](CO)NC(=O)CCCC[C@@H]1SC[C@@H]2NC(=O)N[C@@H]21)[C@@H](C)O)C(C)C)[C@@H](C)O)C(=O)O [presenilin-2] (Biotin-STDNLVRPFMDTLASHQLYI-OH; C-terminus assumed)
[1]; PDZ KIAA0807(S), PDZ Domain 1
  Classification: 1 (A450 nm 0-1)
[2]
  Classification: 5 (A450 nm of 4 more than 2× repeated)
[3]; PDZ Mint 1, PDZ Domain 1, 2
  Classification: 3 (A450 nm 2-3)

## CC[C@H](C)[C@H](NC(=O)[C@H](Cc1ccc(O)cc1)NC(=O)[C@@H](NC(=O)[C@@H]1CCCN1C(=O)[C@H](CCC(N)=O)NC(=O)[C@H](CCC(=O)O)NC(=O)[C@H](CCC(N)=O)NC(=O)[C@H](C)NC(=O)[C@@H](NC(=O)[C@H](CC(C)C)NC(=O)[C@H](CC(C)C)NC(=O)[C@H](CCCNC(=N)N)NC(=O)[C@H](Cc1ccc(O)cc1)NC(=O)[C@H](CCSC)NC(=O)[C@H](C)NC(=O)[C@H](C)NC(=O)[C@@H]1CCCN1C(=O)[C@H](CCSC)NC(=O)[C@@H](NC(=O)[C@H](CCCCN)NC(=O)CCCC[C@@H]1SC[C@@H]2NC(=O)N[C@@H]21)[C@@H](C)O)[C@@H](C)O)C(C)C)C(=O)O [MINT-1] (Biotin-KTMPAAMYRLLTAQEQPVYI-OH; C-terminus assumed)
[1]; PDZ KIAA0807(S), PDZ Domain 1
  Classification: 5 (A450 nm of 4 more than 2× repeated)
[1]; [4]
  Classification: 4 (A450 nm 3-4)
[2]
  Classification: 5 (A450 nm of 4 more than 2× repeated)
[3]; PDZ Mint 1, PDZ Domain 1
  Classification: 3 (A450 nm 2-3)
[3]; PDZ Mint 1, PDZ Domain 1, 2
  Classification: 5 (A450 nm of 4 more than 2× repeated)

## CC(C)C[C@H](NC(=O)[C@H](C)NC(=O)[C@@H](NC(=O)[C@@H](NC(=O)[C@H](Cc1c[nH]cn1)NC(=O)[C@H](CC(C)C)NC(=O)CNC(=O)[C@H](CCC(N)=O)NC(=O)CNC(=O)CNC(=O)[C@H](C)NC(=O)[C@H](C)NC(=O)[C@H](CCCNC(=N)N)NC(=O)[C@H](C)NC(=O)[C@H](CO)NC(=O)[C@H](CC(=O)O)NC(=O)[C@H](CC(=O)O)NC(=O)[C@H](Cc1c[nH]c2ccccc12)NC(=O)[C@H](C)NC(=O)CCCC[C@@H]1SC[C@@H]2NC(=O)N[C@@H]21)C(C)C)[C@@H](C)O)C(=O)O [LPAP] (Biotin-AWDDSARAAGGQGLHVTAL-OH; C-terminus assumed)
[1]; PDZ KIAA807
  Classification: 5 (A450 nm of 4 more than 2× repeated)
[2]
  Classification: 1 (A450 nm 0-1)
[3]; PDZ Mint 1, PDZ Domain 2
  Classification: 1 (A450 nm 0-1)

## CC[C@H](C)[C@H](NC(=O)[C@H](CCC(N)=O)NC(=O)[C@@H](NC(=O)[C@H](Cc1c[nH]cn1)NC(=O)[C@H](CCC(N)=O)NC(=O)[C@H](CC(=O)O)NC(=O)[C@H](CCC(=O)O)NC(=O)[C@H](CC(=O)O)NC(=O)[C@H](Cc1ccccc1)NC(=O)[C@@H]1CCCN1C(=O)[C@H](CCC(=O)O)NC(=O)[C@H](CC(N)=O)NC(=O)[C@H](CCC(=O)O)NC(=O)[C@@H]1CCCN1C(=O)[C@H](CC(=O)O)NC(=O)[C@H](CO)NC(=O)[C@H](CC(=O)O)NC(=O)CCCC[C@@H]1SC[C@@H]2NC(=O)N[C@@H]21)[C@@H](C)O)C(=O)N[C@H](C(=O)N[C@@H](CCCCN)C(=O)N[C@H](C(=O)O)C(C)C)[C@@H](C)O [PTEN]
[1]; PDZ KIAA0807(S), PDZ Domain 1
  Classification: 5 (A450 nm of 4 more than 2× repeated)
[1]; [4]
  Classification: 5 (A450 nm of 4 more than 2× repeated)
[2]
  Classification: 1 (A450 nm 0-1)
[3]; PDZ Mint 1, PDZ Domain 1, 2
  Classification: 1 (A450 nm 0-1)
[3]; PDZ Mint 1, PDZ Domain 2
  Classification: 1 (A450 nm 0-1)

## KTMPAAMFRLLTGQETPLYI (Biotin-KTMPAAMFRLLTGQETPLYI) [MINT-2]
[1]; PDZ KIAA0807(S), PDZ Domain 1
  Classification: 4 (A450 nm 3-4)
[1]; [4]
  Classification: 3 (A450 nm 2-3)
[2]
  Classification: 4 (A450 nm 3-4)
[3]; PDZ Mint 1, PDZ Domain 1
  Classification: 2 (A450 nm 1-2)
[3]; PDZ Mint 1, PDZ Domain 1, 2
  Classification: 5 (A450 nm of 4 more than 2× repeated)
[3]; PDZ Mint 1, PDZ Domain 2
  Classification: 1 (A450 nm 0-1)
